The text below walks through data of patent publication US8841452B1, “Process for recovery of nalmefene hydrochloride” (H. Lundbeck A/S, priority 2011, dated 2014).

Data set [1] is described as follows: solubility in aqueous medium. It counts as physicochemical. The settings on record: compared to naltrexone itself. From the text: Since only compounds containing a carbonyl moiety can react with the bisulfite anion nalmefene cannot undergo to such reaction. The bisulfite adduct of naltrexone is more soluble than naltrexone itself thus permitting the removal of this impurity.

The conditions of data set [2]: crystalline form; improves API stability under storage and formulation conditions; cited from earlier work.
For data set [3] the following is noted: compared to naltrexone; cited from earlier work.
For data set [4] the following is noted: compared to naltrexone; cited from earlier work. This is another data set of the same source.
The conditions of data set [5]: compared to naltrexone; cited from earlier work. The source holds these as a separate data set.
For data set [6] the following is noted: hydrochloride salt, doses of 10 to 40 mg taken when the patient experiences a craving for alcohol; cited from earlier work.

Counter-ions that a name gives are not always drawn.

As to `O=S(=O)(O)C1(O)CC[C@@]2(O)[C@H]3Cc4ccc(O)c5c4[C@@]2(CCN3CC2CC2)[C@H]1O5` (stereo partly drawn) [bisulfite adduct of naltrexone], the solubility result in data set [1] is given as “more soluble”.
With `C=C1CC[C@@]2(O)[C@H]3Cc4ccc(O)c5c4[C@@]2(CCN3CC2CC2)[C@H]1O5` [nalmefene hydrochloride dihydrate], in data set [2], the hygroscopic properties entry is “non-hygroscopic”.
As for `C=C1CC[C@@]2(O)[C@H]3Cc4ccc(O)c5c4[C@@]2(CCN3CC2CC2)[C@H]1O5` [nalmefene, 17-(cyclopropylmethyl)-4,5-alpha-epoxy-6-methylenemorphinan-3,14-diol hydrochloride], in data set [3], the oral bioavailability result was “higher”. Also, the half-life result in data set [4] is “longer”. In addition, the dose-dependent liver toxicity entry in data set [5] is “absence”. The “effect in the management of alcohol dependency” value in data set [6] is “good effect”.
